Experimental data published in patent US10918719B2, “Methods for cross-linking corneal collagen with verteporfin for the treatment of disorders of the eye” (Massachusetts Eye and Ear Infirmary, priority 2014, dated 2021).

Legend:
Human research corneas [1] = assay: Creep testing under constant force of 15 N; conditions: constant force 15 N, between 0 and 4.25 minutes; untreated −3.46
Method: The biomechanical properties of untreated corneas and corneas treated with R+UVA and V+NTL6 were measured using gross observation, compression, creep and tensile strength testing. The corneas were stored in Optisol GS and refrigerated at 4° C. until the time of testing. […] The sample was held under a constant force of 15 N and the strain was measured over a period of 4.25 minutes. Creep testing has been used to evaluate the biomechanical strength of tissue, such as the cornea, by applying a constant stress and monitoring the rate of deformation ^21In this study, cornea tissue was kept under a constant stress using a compression force of 15 N and then the slope of the strain-time curve was calculated between 0 and 4.25 minutes and represented the rate of tissue deformation.

Human research corneas [2] = assay: Gross observation of corneal rigidity / curvature; conditions: for rigidity on gross examination versus untreated corneas: cornea strips placed horizontally in a clamp (FIG. 3); for Gross observation: ex vivo treated corneas
Method: (§1) The biomechanical properties of untreated corneas and corneas treated with R+UVA and V+NTL6 were measured using gross observation, compression, creep and tensile strength testing. The corneas were stored in Optisol GS and refrigerated at 4° C. until the time of testing.
For example, when cornea strips were placed horizontally in a clamp, the tissue treated by V+NTL6 and by R+UVA were noted to have a more pronounced curvature than the untreated control group (FIG. 3).

[3] = tested on: Human research corneas (corneal strips); assay: Tensile strength testing (strip extensometry); conditions: for maximum stress observed prior to failure: tensile test at 0.025 mm/sec until failure, untreated 3.02 (FIG. 8); for maximum modulus value (tensile): versus untreated corneas (FIG. 9B); for instantaneous modulus values at 4%, 6%, and 8% strain (toe region): versus untreated corneas (FIG. 11)
Method: as §1
A rectangular strip of corneal tissue (approximately 3 mm wide and 14 mm long) was cut from each sample with a scalpel. The corneal strips were individually clamped between the two jaws of a microcomputer-controlled biomaterial tester (Minimat, Rheometriv Scientific GmbH).^15-20 Tensile testing was performed using a Shimadzu AGS-X (Cambridge Polymer Group, Inc. 56 Roland St suite 310, Boston, Mass. 02129, United States) load frame equipped with a 50 N load cell and pneumatic grips, which were lined with sandpaper for prevent tissue slippage. The pneumatic grips compensated for any dimensional change as the samples were stretched and allowed a fixed grip pressure of 35 pressure per square inch (psi) to be applied. The initial grip separation was set to 4.5 mm and tested at a rate of 0.025 mm/sec until failure. The strain (ε) was then increased linearly at a certain velocity, and the relative stress (s) was measured.
In this study, strip extensometry was performed using rectangular strips of corneal tissue that was extracted from untreated and treated corneas. The maximum stress observed prior to failure, the maximum modulus values, and the instantaneous modulus values at specific strain percentages were calculated. The stress-strain data can be broadly separated into two regions: an initial toe region that covers strain values typically observed in vivo, and the region covering extreme deformations not likely to be observed in vivo.
Finally, the initial toe region of each sample group was compared. The stress-strain data was offset such that the sample length at a stress of 0.02 MPa was defined as 0% strain (this offset is equivalent to defining a pre-stress of […] at the start of the tensile test). A representative plot showing the toe region of the tensile data for one specimen from each sample group is shown in FIG. 10, and the instantaneous modulus values at 4%, 6%, and 8% strain for each sample group are shown in FIG. 11.

Human research corneas [4] = assay: Compression testing (Q800 DMA), Young's modulus; conditions: for slope of the stress-strain compression data versus untreated corneas: FIG. 5; for Young's modulus: linear fit of stress-strain curve between 0.08 and 0.10 MPa, untreated 0.43 MPa
Method: as §1
Compression testing was performed using a Q800 DMA (TA instruments). The tissue was placed within a submersion clamp and centered beneath a custom 8 mm diameter compression plate, as shown in FIG. 2. The submersion clamp was filled with 1× phosphate buffered saline (PBS) solution to prevent the sample from drying out during the test.
The elasticity of any tissue can be determined by measuring the stress (force on a cross-section point) and its relative strain (proportional deformation)^12,14. The Young's modulus is the proportion between the stress and strain values and reflects the elasticity of the tissue. A small Young's modulus value reflects more elasticity of a material and is represented in units of Newton/m^2.
Young's modulus was calculated as a linear fit of the final portion of the stress-strain curve, between stress values of 0.08 and 0.10 MPa (FIG. 6). Tissue treated by R+UVA and V+NTL6 had statistically larger moduli than untreated corneas. Corneas treated by V+NTL6 appeared to be slightly more stiff (0.80 vs 0.43 MPa, p<0.005) than those treated by R+UVA (0.70 vs 0.43 MPa, p<0.05), however this difference was not statistically significant.

[5] = tested on: Human research corneas (de-epithelialized, 8.5-mm buttons) in collagenase A; assay: Resistance to collagenase A digestion (time to total dissolution of cornea buttons); conditions: 0.3% collagenase A, 37° C.; for time to dissolution in collagenase A: untreated corneas 5.47 ± 0.21 hours; for Collagenase time to dissolution: 150 rpm, ex vivo de-epithelialized corneas, n=5, mean ± SD
Excerpt: Human research corneas were obtained from Tissue Bank International (Baltimore, Md.) and North Carolina Eye Bank (Winston-Salem, N.C.). Riboflavin 5′-phosphate sodium salt hydrate, 20% (w/w) dextran solution (from Leuconostoc mesenteroides) and collagenase A (from Clostridium histolyticum, E.C. 3.4.24.3) were obtained from Sigma Aldrich (St. Louis, Mo.). Barron® artificial anterior chambers were purchased from Katena Eye Instruments (Denville, N.J.). The VEGA LED-based UV emitter was purchased from Costruzione Strumenti Oftalmici (Firenze, Italy). The Excells E24 incubator shaker series was purchased from New Brunswick Scientific (Enfield, Conn.).
The corneas were obtained in OptiZol® solution and stored at 4° C. until use. All experiments were performed within 2 weeks from the date of death of the donor. Each cornea was fitted into a Barron® artificial anterior chamber with normal balanced salt solution followed by mechanical removal of 8 mm of the central corneal epithelium with a blunt blade.
Conventional riboflavin-UVA (R+UVA) crosslinking was performed in an ex vivo fashion according to the Dresden protoco.^1-2 50 mg of riboflavin 5′-phosphate was added to 50 mL of dextran (w/w) and mixed thoroughly to make 0.1% riboflavin (1 mg/mL) solution. All solutions were covered in aluminum foil for protection from room UV light and stored at 4° C. until use. Riboflavin solution was topically administered every 5 minutes onto the surface of the de-epithelialized cornea for total instillation period of 30 minutes. UVA 370 nm light (X-Vega, Sooft SPA) was then focused onto the surface of the cornea at an irradiance of 3 mW/cm^2 (5.4 J/cm^2 fluence) for 5 minutes. The five-minute UVA exposure sequence was repeated 5 more times for a total UVA exposure time of 30 minutes. Prior to each 5-minute UVA treatment sequence, one drop of balanced salt solution and one drop of riboflavin were administered onto the surface of the cornea.
Each de-epithelialized cornea was placed on a Barron® artificial anterior chamber and underwent a treatment protocols (below) that included either topical verteporfin solution alone, non-thermal laser alone, or a combination of both topical verteporfin and non-thermal laser. Verteporfin solution was applied topically using the same formulation that is administered intravenously for the treatment of choroidal neovascularization^3-8 (6 mg/mL, Visudyne; Novartis Ophthalmics AG, Hettingen, Switzerland). A 689 nm wavelength non-thermal laser (Opal Photoactivator; Coherent Inc., Santa Clara, Calif.) was applied using a spot size of 7 mm at a power intensity of 600 mW/cm^2.
1. Topical verteporfin (V), without laser: Verteporfin solution was topically administered onto the surface of a de-epithelialized cornea every minute for 15 minutes. The tissue was not exposed to laser therapy.
3. Combined treatment of verteporfin with non-thermal laser for one treatment sequence (V+NTL-1): Verteporfin, which was prepared at a dose of 6 mg/ml (one drop per minute) was applied onto the de-epithelialized corneas every minute for fifteen minutes followed by one NTL treatment sequence. A 689 nm nonthermal laser light was delivered directly over a cornea with spot sizes (7 mm) at a power intensity of 600 mW/cm^2 for one minute only.
4. Combined treatment of Verteporfin with Non-Thermal Laser Therapy for six treatment sequences (V+NTL-6): Verteporfin solution (6 mg/ml) was topically applied every minute for fifteen minutes followed by six NTL sequences. One drop of balanced salt solution and one drop of verteporfin was administered between each treatment sequence. […]

Row | Compound | creep rate (slope of the strain-time curve) (Human research corneas [1]) | rigidity on gross examination versus untreated corneas (Human research corneas [2]) | maximum stress observed prior to failure [3] | maximum modulus value (tensile) [3] | instantaneous modulus values at 4%, 6%, and 8% strain (toe region) [3] | slope of the stress-strain compression data versus untreated corneas (Human research corneas [4]) | Young's modulus (Human research corneas [4]) | time to dissolution in collagenase A ([5]; listed as riboflavin-UVA, sodium salt hydrate) | time to dissolution in collagenase A ([5]; sodium salt hydrate) | Gross observation (Human research corneas [2]; listed as V-NLT-6) | Collagenase time to dissolution ([5]; listed as V-NLT-6) | time to dissolution in collagenase A [5] | Gross observation (Human research corneas [2]; listed as V-NLT-1) | Collagenase time to dissolution ([5]; listed as V-NLT-1) | Gross observation (Human research corneas [2]) | Collagenase time to dissolution [5]
1 | Cc1cc2nc3c(=O)[nH]c(=O)nc-3n(C[C@H](O)[C@H](O)[C@H](O)COP(=O)([O-])O)c2cc1C.[Na+] [R+UVA, Riboflavin 5′-phosphate sodium salt hydrate] | faster creep rate, but the difference was not statistically significant | much more rigidity than untreated corneas | larger stress values prior to failure | statistically larger maximum modulus values than untreated corneas | no statistically significant difference was observed | steeper | 0.70 MPa | 20.06 ± 1.23 h | 20.06 h |  |  |  |  |  |  | 
2 | verteporfin [V+NTL6] | −1.87 | much more rigidity than untreated corneas | 7.67 | statistically larger maximum modulus values than untreated corneas | statistically larger modulus values than untreated corneas | steeper | 0.80 MPa |  |  | Cornea rigid | 19.75 ± 0.95 h | 19.75 ± 0.95 h |  |  |  | 
3 | verteporfin [V+NTL1] |  |  |  |  |  |  |  |  |  |  |  | 5.96 ± 0.39 h | No rigidity | 5.96 ± 0.39 h |  | 
4 | verteporfin |  |  |  |  |  |  |  |  |  |  |  | 5.95 h |  |  | No rigidity | 5.95 ± 0.33 h
